Source: ChEMBL document CHEMBL1138857, “Quinol-4-ones as steroid A-ring mimetics in nonsteroidal dissociated glucocorticoid agonists” (J Med Chem, 2006)

Legend:
Progesterone receptor = biological target: T1, Progesterone receptor (Homo sapiens, UniProt P06401); assay: Inhibition of tetramethylrhodamine labeled RU486 binding to PR by FP assay
T1 sequence (P06401 whole entry): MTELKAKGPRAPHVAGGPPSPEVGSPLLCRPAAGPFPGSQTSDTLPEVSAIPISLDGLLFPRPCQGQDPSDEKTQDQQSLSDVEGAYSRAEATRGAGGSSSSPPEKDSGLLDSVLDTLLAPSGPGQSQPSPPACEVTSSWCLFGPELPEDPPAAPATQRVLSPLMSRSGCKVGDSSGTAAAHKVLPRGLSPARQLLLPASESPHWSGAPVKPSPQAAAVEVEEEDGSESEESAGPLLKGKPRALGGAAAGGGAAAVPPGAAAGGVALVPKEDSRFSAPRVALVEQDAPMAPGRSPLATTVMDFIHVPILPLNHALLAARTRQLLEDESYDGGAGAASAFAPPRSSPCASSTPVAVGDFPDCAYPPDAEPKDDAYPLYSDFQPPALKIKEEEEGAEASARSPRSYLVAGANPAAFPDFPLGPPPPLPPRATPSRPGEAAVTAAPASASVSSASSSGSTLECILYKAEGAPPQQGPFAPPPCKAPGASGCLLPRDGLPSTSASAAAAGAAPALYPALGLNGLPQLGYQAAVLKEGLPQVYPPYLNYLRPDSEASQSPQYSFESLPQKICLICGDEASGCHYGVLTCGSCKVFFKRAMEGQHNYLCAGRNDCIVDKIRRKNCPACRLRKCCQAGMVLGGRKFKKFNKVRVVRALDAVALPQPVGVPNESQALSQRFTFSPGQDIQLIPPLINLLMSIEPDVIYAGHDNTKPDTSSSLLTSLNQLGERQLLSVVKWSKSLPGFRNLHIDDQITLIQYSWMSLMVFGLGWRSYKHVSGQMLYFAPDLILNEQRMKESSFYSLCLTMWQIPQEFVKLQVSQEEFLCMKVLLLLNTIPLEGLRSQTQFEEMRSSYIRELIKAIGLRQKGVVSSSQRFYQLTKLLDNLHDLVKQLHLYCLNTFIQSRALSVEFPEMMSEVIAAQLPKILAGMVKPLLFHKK

[1] = biological target: T2, Mineralocorticoid receptor (Homo sapiens, UniProt P08235); assay: Inhibition of tetramethylrhodamine labeled dexamethasone binding to MR by FP assay
T2 sequence (P08235 whole entry): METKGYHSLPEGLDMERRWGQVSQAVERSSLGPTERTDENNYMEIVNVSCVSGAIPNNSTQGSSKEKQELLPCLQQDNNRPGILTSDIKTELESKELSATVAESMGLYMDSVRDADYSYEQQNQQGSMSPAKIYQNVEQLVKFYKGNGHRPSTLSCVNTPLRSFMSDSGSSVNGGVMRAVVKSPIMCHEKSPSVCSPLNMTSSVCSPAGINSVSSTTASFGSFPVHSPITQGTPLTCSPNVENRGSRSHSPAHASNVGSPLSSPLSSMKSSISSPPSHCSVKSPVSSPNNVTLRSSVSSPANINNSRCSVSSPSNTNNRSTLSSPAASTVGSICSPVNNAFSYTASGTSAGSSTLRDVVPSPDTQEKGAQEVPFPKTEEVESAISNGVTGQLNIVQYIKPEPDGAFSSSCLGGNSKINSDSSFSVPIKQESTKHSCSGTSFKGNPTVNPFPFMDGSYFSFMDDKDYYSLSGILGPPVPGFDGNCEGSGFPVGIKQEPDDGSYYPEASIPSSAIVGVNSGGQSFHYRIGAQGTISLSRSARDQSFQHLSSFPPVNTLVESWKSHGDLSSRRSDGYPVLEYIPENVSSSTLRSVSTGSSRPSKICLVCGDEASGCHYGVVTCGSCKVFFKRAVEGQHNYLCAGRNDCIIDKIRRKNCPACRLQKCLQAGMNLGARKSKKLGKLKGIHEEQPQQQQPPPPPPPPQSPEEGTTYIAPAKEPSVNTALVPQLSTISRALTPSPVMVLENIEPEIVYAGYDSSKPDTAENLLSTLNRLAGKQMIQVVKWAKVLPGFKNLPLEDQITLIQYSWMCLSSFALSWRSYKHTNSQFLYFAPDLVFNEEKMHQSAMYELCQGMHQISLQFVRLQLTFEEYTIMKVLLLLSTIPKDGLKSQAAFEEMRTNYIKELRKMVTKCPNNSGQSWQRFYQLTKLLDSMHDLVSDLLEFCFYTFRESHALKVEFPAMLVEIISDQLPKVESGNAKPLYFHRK

HFF [2] = assay: Inhibition of IL1-stimulated IL6 production in HFF cells; assay type: functional, cell-based; conditions: Homo sapiens
HFF [3] = assay: Inhibition of IL1-stimulated IL6 production in HFF cells relative to Dexamethasone; assay type: functional, Homo sapiens
Homo sapiens = species: Homo sapiens; assay: Ratio of IC50 for GR to PR
Glucocorticoid receptor = biological target: T3, Glucocorticoid receptor (Homo sapiens, UniProt P04150)
T3 sequence (P04150 whole entry): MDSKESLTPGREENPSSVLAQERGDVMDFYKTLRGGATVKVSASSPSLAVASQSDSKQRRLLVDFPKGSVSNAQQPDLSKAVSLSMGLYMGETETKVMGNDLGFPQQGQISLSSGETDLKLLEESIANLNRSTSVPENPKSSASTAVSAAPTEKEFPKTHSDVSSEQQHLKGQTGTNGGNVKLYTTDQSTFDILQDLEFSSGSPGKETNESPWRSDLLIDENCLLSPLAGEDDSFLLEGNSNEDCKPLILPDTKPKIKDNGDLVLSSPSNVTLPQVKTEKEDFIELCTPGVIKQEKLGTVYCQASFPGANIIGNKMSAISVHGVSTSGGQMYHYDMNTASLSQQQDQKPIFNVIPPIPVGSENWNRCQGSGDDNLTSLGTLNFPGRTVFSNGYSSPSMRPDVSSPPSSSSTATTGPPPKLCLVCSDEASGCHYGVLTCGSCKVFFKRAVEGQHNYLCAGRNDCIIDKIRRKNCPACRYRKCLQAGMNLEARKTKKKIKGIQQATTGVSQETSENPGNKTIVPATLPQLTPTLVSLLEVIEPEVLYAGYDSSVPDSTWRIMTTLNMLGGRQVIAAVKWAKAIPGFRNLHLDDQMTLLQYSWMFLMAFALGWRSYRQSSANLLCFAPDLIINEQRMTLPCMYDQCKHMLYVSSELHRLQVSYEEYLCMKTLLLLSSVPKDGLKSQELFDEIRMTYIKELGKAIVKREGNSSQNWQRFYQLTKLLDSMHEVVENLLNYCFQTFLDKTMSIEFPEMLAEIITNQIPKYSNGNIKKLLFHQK

HFF [4] = assay: Induction of aromatase activity in HFF cells assessed as production of beta estradiol by aromatase assay; assay type: functional, cell-based; conditions: Homo sapiens
HFF [5] = assay: Induction of aromatase activity in HFF cells assessed as production of beta estradiol by aromatase assay relative to Dexamethasone; assay type: functional, Homo sapiens
HeLa [6] = assay: Activation of MMTV in HeLa cells measured by luciferase activity; assay type: functional, cell-based; conditions: Homo sapiens
HeLa [7] = assay: Activation of MMTV in HeLa cells measured by luciferase activity relative to Dexamethasone; assay type: functional, Homo sapiens
Mus musculus [8] = assay: Inhibition of LPS-stimulated TNFalpha production in BALB/c mouse at 3 mg/kg, po; conditions: read-out: Inhibition
Mus musculus [9] = assay: Inhibition of LPS-stimulated TNFalpha production in BALB/c mouse at 10 mg/kg, po; assay type: functional

EC50 (HeLa [6]) [nM]	Compound	IC50 (Progesterone receptor) [nM]	IC50 [1] [nM]	IC50 (HFF [2]) [nM]	Efficacy (HFF [3]) [%]	Ratio IC50 (Homo sapiens)	IC50 (Glucocorticoid receptor) [nM]	EC50 (HFF [4]) [nM]	Efficacy (HFF [5]) [%]	Efficacy (HeLa [7]) [%]	inhibition in vivo at 3 mg/kg (Mus musculus [8]) [%]	inhibition in vivo at 10 mg/kg (Mus musculus [9]) [%]
	COc1ccc(F)cc1C(C)(C)CC(O)(CN1CCC(=O)c2ccccc21)C(F)(F)F (configuration not stated)	90	130	110	72	< 50	4					
16	C[C@]12C=CC(=O)C=C1CC[C@@H]1[C@@H]2[C@@H](O)C[C@@]2(C)[C@H]1CC[C@]2(O)C(=O)CO [PREDNISOLONE]			6.6	96			19	92	91	84	
	COc1ccc(F)cc1C(C)(C)CC(O)(CN1CCOc2ccccc21)C(F)(F)F (configuration not stated)	640	310	600	25	< 50	15					
> 2000	COc1ccc(F)cc1C(C)(C)CC(O)(Cn1ccc(=O)c2ccccc21)C(F)(F)F (configuration not stated)	475	120	27	82	< 50	10	220	67	10		
> 2000	Cc1ccccc1C(C)(C)CC(O)(Cn1ccc(=O)c2ccccc21)C(F)(F)F (configuration not stated)	240	150	61	63		22	> 2000	29	1		36
	COc1ccc(F)cc1C(C)(C)CC(O)(CN1C[C@@H](C)C(=O)[C@@H](C)C1)C(F)(F)F (some centres not stated)	> 2000	430	75	89	> 75	10	240	93			
	COc1ccc(F)cc1C(C)(C)CC(O)(CN1C[C@@H](C)O[C@@H](C)C1)C(F)(F)F (some centres not stated)	> 2000	450	270	72	> 75	38					
> 2000	Cc1ccc(F)cc1C(C)(C)CC(O)(Cn1ccc(=O)c2ccccc21)C(F)(F)F (configuration not stated)	240	120	34	66		10		22	2		50
37	CC(C)(CC(O)(Cn1ccc(=O)c2ccccc21)C(F)(F)F)c1cc(F)ccc1O (configuration not stated)	960	580	6	92		5	14	74	20		55
